Measured values reported in patent US20110131683A1, “Polypeptide Inducing Dwarfism of Plants, Polynucleotide Coding the Polypeptide, and Those Use” (GENOMINE, INC., priority 2007, published 2011).

Columns and labels:
Assay type in all cases: in vivo, Arabidopsis thaliana
[1] = tested on: SEN::AtGA2ox4-9 and SEN::AtGA2ox4-10 dwarfism lines; assay: Phenotype recovery of SEN::AtGA2ox4 mutant by treatment with GA3
Procedure: In order to examine whether the AtGA2ox4 gene is actually involved in gibberellin catabolism, the SEN::AtGA2ox4-9 and the SEN::AtGA2ox4-10 line, both showing dwarfism phenotypes, were grown for 30 days while 10^−4 M GA3 (Sigma, USA) was applied twice at intervals of one week starting from 12 days after germination. Treatment with the active gibberellin GA3 may recover the phenotype of the dwarfism-induced mutant in which gibberellin insufficiency was caused by the overexpression of the AtGA2ox4 gene, to that of the wild-type. Comparisons were made between the mutants treated with or without GA3 (FIGS. 10, 11 and 12). […] This was true of GA3-treated mutants. These facts allow an inference that the gene of the present invention plays an important role in dwarfism induction in plants, but is not involved in the control of flowering time.

[2] = tested on: AtGA20ox1, AtGA20ox2 and AtGA3ox1 expression; assay: RT-PCR expression of gibberellin biosynthesis-related genes in SEN::AtGA2ox4 mutant; settings: FIG. 9
Procedure: Genes associated with GA 2-oxidase activity, flowering and a feedback mechanism of the gibberellin metabolism in the SEN::AtGA2ox4 mutant with a dwarfism phenotype were analyzed for expression patterns. In this regard, total RNA was isolated from flowers, roots, stems, leaves and siliques of the wild-type Arabidopsis thaliana and the SEN::AtGA2ox4 mutant, both grown for 30 days after germination, with the aid of RNasey Plant Mini Kit (QIAGEN, Germany). cDNA was synthesized from 1 μg of each RNA using Superscript III Reverse Transcriptase (INVITROGEN, USA) under the conditions of 65° C., 5 min; 50° C., 60 min; and 70° C., 15 min. Then, PCR was performed using the synthesized cDNAs as templates in the presence of the primers, specific for GA 2-oxidase and flowering genes, listed in Table 1, below. The PCR was initiated by denaturing the template DNA at 94° C. for 2 min and performed with 30 cycles of 94° C., 1 min; 55° C., 1.5 min; and 72° C., 1 min, followed by extension at 72° C. for 15 min. […]
An examination was made about whether the gene of the present invention is involved in the feedback mechanism of the gibberellin metabolism and thus in gibberellin catabolism. For this, AtGA20ox1 and AtGA20ox2, both coding for GA20-oxidase, and AtGA3ox1 coding for GA3-oxidase were analyzed for expression levels in the SEN::AtGA2ox4 mutant. […]

[3] = tested on: proteins up-regulated by AtGA2ox4 overexpression; assay: Two-dimensional electrophoresis of proteins of SEN::AtGA2ox4 mutant; settings: SEN::AtGA2ox4 mutant grown 30 days, 2-D electrophoresis, Table 2
Procedure: Proteins were isolated from the wild-type Arabidopsis thaliana (FIG. 13), the SEN::AtGA2ox4 mutant (FIG. 14), and the GA3-treated SEN::AtGA2ox4 mutant (FIG. 15), all grown for 30 days after germination, and analyzed for expression pattern by two-dimensional electrophoresis. Protein isolation for each plant was conducted as follows. Each plant was mashed in 10 volumes of a reagent comprising 7M urea, 2M thiourea, 4% (w/v) 3-[(3-cholamidopropy)dimethyammonio]-1-propanesulfonate (CHAPS), 1% (w/v) dithiothreitol (DTT), 2% (v/v) pharmalyte and 1 mM benzamidine, followed by heating at 100° C. for 10 min. After centrifugation at 15,000 rpm for 1 hour, the supernatant was used as a sample for two-dimensional electrophoresis. Protein quantities were determined using the Bradford method (Bradford et al., 1976). For primary isoelectric focusing (IEF), IPG strips were soaked at room temperature for 12-16 hrs in a reswelling solution comprising 7M urea, 2M thiourea, 2% 3-[(3-cholamidopropy)dimethylammonio]-1-propanesulfonate (CHAPS), 1% dithiothreitol (DTT) and 1% pharmalyte. Each protein sample was used in the amount of 200 μg per strip. […] The protein spots were quantified to examine a change in expression level by the analysis of the scanned images using the PDQuest software (version 7.0, BioRad). The quantity of each spot was normalized according to the total intensity of valid spots. […]

C=C1C[C@]23C[C@@]1(O)CC[C@H]2[C@@]12C=C[C@H](O)[C@@](C)(C(=O)O1)[C@H]2[C@@H]3C(=O)O [GA3]
phenotype of dwarfism-induced mutant lines after GA3 treatment ([1]; 10^-4 M GA3 applied twice at intervals of one week starting 12 days after germination, grown 30 days, SEN::AtGA2ox4-9 and -10 lines): recovered almost perfectly to the wild-type phenotype
flowering time of GA3-treated mutants versus wild-type ([1]; GA3-treated SEN::AtGA2ox4 mutants): not different in flowering time from the wild-type
expression levels of AtGA20ox1, AtGA20ox2 and AtGA3ox1 after GA3 treatment [2]: return the expression levels to those of the wild-type
proteins up-regulated by AtGA2ox4 overexpression, after GA3 treatment [3]: recovered to the phenotype of the wild-type
